In ChEMBL document CHEMBL1147292, “The structure of ulithiacyclamide B. Antitumor evaluation of cyclic peptides and macrolides from Lissoclinum patella” (J Nat Prod, 1989) one finds Activity and IC50 data, which are given here for nine compounds.

Assay [1] deals with L1210. Briefly: Cytotoxicity against mouse L1210 cells at 0.15 ug/disk by corbett disk diffusion assay. It is filed as functional. For orientation: In agar diffusion tests the substance spreads into inoculated agar from a disc or well.
The nature of assay [2]: Cytotoxicity against mouse Panc03 cells at 1.5 ug/disk by corbett disk diffusion assay. It is filed as functional.
In assay [3] the test system is MC-38. Briefly: Cytotoxicity against mouse C38 cells at 1.5 ug/disk by corbett disk diffusion assay. The assay is classed as functional.
In assay [4] the test system is L1210. The experiment in a line: Cytotoxicity against mouse L1210 cells at 1.5 ug/disk by corbett disk diffusion assay. The assay is classed as functional.
The subject of assay [5] is MC-38. The experiment in a line: Cytotoxicity against mouse C38 cells at 100 ug/disk by corbett disk diffusion assay. The assay is classed as functional.
Assay [6] relates to KB. The experiment in a line: Cytotoxicity against human KB cells. The assay is classed as functional, cell-based.
The subject of assay [7] is L1210. The experiment in a line: Cytotoxicity against mouse L1210 cells at 100 ug/disk by corbett disk diffusion assay. It is filed as functional.
The nature of assay [8]: Cytotoxicity against human H116 cells at 100 ug/disk by corbett disk diffusion assay. It is filed as functional.
In assay [9] the test system is L1210. Briefly: Cytotoxicity against mouse L1210 cells at 200 ug/disk by corbett disk diffusion assay. It is filed as functional.
Assay [10] in a line: Cytotoxicity against human H116 cells at 200 ug/disk by corbett disk diffusion assay. The assay is classed as functional.
For assay [11], the system named is MC-38. The experiment in a line: Cytotoxicity against mouse C38 cells at 200 ug/disk by corbett disk diffusion assay. The assay is classed as functional.
Assay [12] has as its system L1210. Briefly: Cytotoxicity against mouse L1210 cells at 5 ug/disk by corbett disk diffusion assay. The assay is classed as functional.
Assay [13] is described as follows: Cytotoxicity against human H116 cells at 5 ug/disk by corbett disk diffusion assay. The assay is classed as functional.
Assay [14] concerns MC-38. Briefly: Cytotoxicity against mouse C38 cells at 5 ug/disk by corbett disk diffusion assay. The assay is classed as functional.
The test system of assay [15] is L1210. The experiment in a line: Cytotoxicity against mouse L1210 cells at 10 ug/disk by corbett disk diffusion assay. The assay is classed as functional.
The nature of assay [16]: Cytotoxicity against human H116 cells at 10 ug/disk by corbett disk diffusion assay. It is filed as functional.
The subject of assay [17] is MC-38. Briefly: Cytotoxicity against mouse C38 cells at 10 ug/disk by corbett disk diffusion assay. The assay is classed as functional.

Structures are written as SMILES. In brackets after ≈: the same amount, converted by molar mass.

Consider `Nc1ccn([C@@H]2O[C@H](CO)[C@@H](O)[C@@H]2O)c(=O)n1` [CYTARABINE], for which the figures for the Activity in [1] and in assay [2] were 550 Zone units and 0 Zone units, respectively.
For the compound `O=c1[nH]cc(F)c(=O)[nH]1` [FLUOROURACIL], the Activity in [3] amounted to 800 Zone units; in assay [4], 0 Zone units.
With `CC[C@H](C)[C@@H]1NC(=O)c2csc(n2)[C@@H](C(C)C)NC(=O)[C@H]2N=C(O[C@@H]2C)[C@H]([C@@H](C)CC)NC(=O)c2csc(n2)[C@@H](C(C)C)NC(=O)[C@@H]2COC1=N2` [PATELLAMIDE A], the Activity in assay [5] was 160 Zone units; in assay [7] it was 150 Zone units; in assay [8], 0 Zone units. Besides, inhibition in assay [6] was half-maximal at 3 µg/mL (≈ 4.04 µM) (IC50).
On to `CC[C@H](C)[C@@H]1NC(=O)c2csc(n2)[C@@H](C)NC(=O)[C@H]2N=C(O[C@@H]2C)[C@H](CC(C)C)NC(=O)c2csc(n2)[C@@H](Cc2ccccc2)NC(=O)[C@H]2N=C1O[C@@H]2C` [PATELLAMIDE B], for which the figures for the Activity in assay [5], in assay [7] and in assay [8] were 150 Zone units, 50 Zone units and 0 Zone units, respectively. Besides, in [6], the IC50 was above 4 µg/mL.
Regarding `CC[C@H](C)[C@@H]1NC(=O)c2csc(n2)[C@@H](C)NC(=O)[C@H]2N=C(O[C@@H]2C)[C@H](C(C)C)NC(=O)c2csc(n2)[C@@H](Cc2ccccc2)NC(=O)[C@H]2N=C1O[C@@H]2C` [PATELLAMIDE C], in assay [6], it took 6 µg/mL (≈ 7.86 µM) to reach half-maximal inhibition (IC50). Besides, the Activity in assay [9] is 260 Zone units; in assay [10], 0 Zone units; in [11], 170 Zone units.
Consider `CCC(C)OC(=O)C1(C)CCC(C)CC(O)C(C)C(=O)C(C)/C=C\CC(C)C(O)C(O)C(OC)/C(C)=C/C=C/C(C)C(C(C)(O)/C=C(/C)Cc2csc(C3(C)OC3C)n2)OC1=O` (centres undefined) [PATELLAZOLE A], for which half-maximal inhibition in [6] (IC50) was put at 0.01 µg/mL (≈ 0.0113 µM). Moreover, the Activity is 240 Zone units in assay [12], 370 Zone units in [13] and 320 Zone units in [14].
The matching figures for `COC1/C(C)=C/C=C/C(C)C(C(C)(O)/C=C(/C)Cc2csc(C3(C)OC3C)n2)OC(=O)C(C)(C(=O)OC(C)C(C)O)CCC(C)CC(O)C(C)C(=O)C(C)/C=C\CC(C)C(O)C1O` (centres undefined) [PATELLAZOLE B]: 0.0003 µg/mL (≈ 0.000332 µM), 300 Zone units, 460 Zone units and 460 Zone units.
On to `CC(C)C[C@H]1NC(=O)[C@H]2N=C(O[C@@H]2C)[C@H]2CSSC[C@@H](NC(=O)c3csc1n3)C1=N[C@H](C(=O)N[C@H](Cc3ccccc3)c3nc(cs3)C(=O)N2)[C@@H](C)O1` [ULITHIACYCLAMIDE B], for which the midpoint of inhibition in assay [6], the IC50, lay at 0.017 µg/mL (≈ 0.0213 µM). In addition, the Activity was determined as 270 Zone units in [15], 280 Zone units in assay [16] and 290 Zone units in assay [17].
For the compound `CC(C)C[C@H]1NC(=O)[C@H]2N=C(O[C@@H]2C)[C@H]2CSSC[C@@H](NC(=O)c3csc1n3)C1=N[C@H](C(=O)N[C@H](CC(C)C)c3nc(cs3)C(=O)N2)[C@@H](C)O1` [ULITHIACYCLAMIDE], inhibition in assay [6] was half-maximal at 0.035 µg/mL (≈ 0.0459 µM) (IC50).

The term IC50 denotes the midpoint of a concentration-inhibition curve.
